Laboratory results published in patent publication US4753953A, “Pyridonecarboxylic acid derivatives and antibacterial pharmaceutical compositions thereof” (priority 1985, dated 1988).
Values after ≈ are worked out from the molar mass of the structure shown. Where two headings read alike, the source gives them in different places.

Columns and labels:
[1] = system: Yersinia enterocolitica IID 981; experiment: MIC, in vitro antibacterial activity (standard strains); assay type: cell-based; conditions: Yersinia enterocolitica, IID981; 10^6 cells/ml; Gram -; read-out: MIC
C. perfringens KYA 13123 = experiment: microbe, parasite or virus in culture; assay type: cell-based; conditions: Clostridium perfringens, KYA13123
K. pneumoniae 1-220S = experiment: MIC, in vitro antibacterial activity (standard strains); assay type: cell-based, Klebsiella pneumoniae; conditions: Klebsiella pneumoniae, 1220S; 10^6 cells/ml; Gram -; read-out: MIC
[2] = system: Propionibacterium acens 11828; experiment: as above; assay type: cell-based; conditions: Propionibacterium, 11828; 10^6 cells/ml; Gram +; read-out: MIC
E. coli ATCC 10536 = experiment: as above; assay type: cell-based, Escherichia coli; conditions: Escherichia coli, ATCC10536; 10^6 cells/ml; Gram -; read-out: MIC
[3] = system: Peptococcus magnus KY 017; experiment: as above; assay type: cell-based; conditions: Finegoldia magna, KY017; 10^6 cells/ml; Gram +; read-out: MIC
E. coli ML 4707 = experiment: as above; assay type: cell-based, Escherichia coli; conditions: Escherichia coli, ML4707, 10^6 cells/ml; Gram -; Table 1; read-out: MIC
S. pneumoniae IID 552 = experiment: as above; assay type: cell-based; conditions: Streptococcus pneumoniae, IID552; 10^6 cells/ml; Gram +; read-out: MIC
[4] = system: Morganella morganii IID 602; experiment: as above; assay type: cell-based; conditions: Morganella morganii, IID602; 10^6 cells/ml; Gram -; read-out: MIC
Pst. micros UPI 5464-1 = experiment: as above; assay type: cell-based; conditions: Parvimonas micra, UPI54641; 10^6 cells/ml; Gram +; read-out: MIC
S. epidermidis IID 866 = experiment: as above; assay type: cell-based; conditions: Staphylococcus epidermidis, IID866; 10^6 cells/ml; Gram +; read-out: MIC
F. varium KYA 8501 = experiment: as above; assay type: cell-based; conditions: Fusobacterium varium, KYA8501; 10^6 cells/ml; Gram -; read-out: MIC
E. faecalis IID 682 = experiment: as above; assay type: cell-based; conditions: Enterococcus faecalis, IID682; 10^6 cells/ml; Gram +; read-out: MIC
P. mirabilis IID 994 = experiment: as above; assay type: cell-based; conditions: Proteus mirabilis, IID994; 10^6 cells/ml; Gram -; read-out: MIC
[5] = system: Serratia marcescens IID 618; experiment: as above; assay type: cell-based; conditions: Serratia marcescens, IID618; 10^6 cells/ml; Gram -; read-out: MIC
[6] = system: Pseudomonas aeruginosa V-1; experiment: as above; assay type: cell-based; conditions: Pseudomonas aeruginosa, V1; 10^6 cells/ml; Gram -; read-out: MIC
C. ramosum = experiment: as above; assay type: cell-based; conditions: Thomasclavelia ramosa; 10^6 cells/ml; Gram +; read-out: MIC
B. fragilis 0558 = experiment: as above; assay type: cell-based, Bacteroides fragilis; conditions: Bacteroides fragilis, 0558; 10^6 cells/ml; Gram -; read-out: MIC
[7] = system: Citrobacter freundii IID 976; experiment: as above; assay type: cell-based; conditions: Citrobacter freundii, IID976
[8] = system: B. thetaiotaomicron (0661); experiment: as above; assay type: cell-based; conditions: Bacteroides thetaiotaomicron; 10^6 cells/ml; Gram -; read-out: MIC
[9] = system: S. aureus IID 670 (Terajima); experiment: as above; assay type: cell-based, Staphylococcus aureus; conditions: Staphylococcus aureus, IID670; 10^6 cells/ml; Gram +; read-out: MIC
P. aeruginosa IFO 12689 = experiment: as above; assay type: cell-based, Pseudomonas aeruginosa; conditions: Pseudomonas aeruginosa, IFO12689; 10^6 cells/ml; Gram -; read-out: MIC
[10] = system: Eubacterium lentum GAI 5242; experiment: as above; assay type: cell-based; conditions: Eggerthella lenta, GAI5242; 10^6 cells/ml; Gram +; read-out: MIC
[11] = system: Peptostreptococcus anaerobius KYA 27337; experiment: as above; assay type: cell-based; conditions: Peptostreptococcus anaerobius, KYA27337; 10^6 cells/ml; Gram +; read-out: MIC
[12] = system: Bacillus subtilis PCI 219; experiment: as above; assay type: cell-based; conditions: Bacillus subtilis, PCI219; 10^6 cells/ml; Gram +; read-out: MIC
F. necrophorum S-45 = experiment: as above; assay type: cell-based; conditions: Fusobacterium necrophorum, S45; 10^6 cells/ml; Gram -; read-out: MIC
B. distasonis 8503 = experiment: as above; assay type: cell-based; conditions: Parabacteroides distasonis, 8503; 10^6 cells/ml; Gram -; read-out: MIC
[13] = system: Bacteroides fragilis GM 7000; experiment: as above; assay type: cell-based; conditions: Bacteroides fragilis, GM7000; 10^6 cells/ml; Gram -; read-out: MIC
[14] = system: Proteus vulgaris IFO 3167; experiment: as above; assay type: cell-based; conditions: Proteus vulgaris, IFO3167
P. aeruginosa IID 1210 = experiment: as above; assay type: cell-based, Pseudomonas aeruginosa; conditions: Pseudomonas aeruginosa, IID1210; 10^6 cells/ml; Gram -; read-out: MIC
B. vulgatus KYA 29327 = experiment: as above; assay type: cell-based; conditions: Phocaeicola vulgatus, KYA29327; 10^6 cells/ml; Gram -; read-out: MIC
[15] = system: Fusobacterium mortiferum 4249; experiment: as above; assay type: cell-based; conditions: Fusobacterium mortiferum, 4249; 10^6 cells/ml; Gram -; read-out: MIC
[16] = 10^6 cells/ml, Gram -, read-out: MIC

SMILES | MIC [1] | MIC (C. perfringens KYA 13123) | MIC (K. pneumoniae 1-220S) | MIC [2] | MIC (E. coli ATCC 10536) | MIC [3] | MIC (E. coli ML 4707) | MIC (S. pneumoniae IID 552) | MIC [4] | MIC (Pst. micros UPI 5464-1) | MIC (S. epidermidis IID 866) | MIC (F. varium KYA 8501) | MIC (E. faecalis IID 682) | MIC (P. mirabilis IID 994) | MIC [5] | MIC [6] | MIC (C. ramosum) | MIC (B. fragilis 0558) | MIC [8] | MIC [9] | further results
CCn1cc(C(=O)O)c(=O)c2cc(F)c(N3C[C@@H](N)[C@@H](C)C3)c(F)c21 (relative stereo) [Example 22, 7-(cis-3-Amino-4-methyl-1-pyrrolidinyl)-1-ethyl-6,8-difluoro-1,4-dihydro-4-oxo-3-quinolinecarboxylic acid] | 0.1 µg/mL (≈ 0.285 µM) | 0.78 µg/mL (≈ 2.22 µM) | 0.1 µg/mL (≈ 0.285 µM) | 25 µg/mL (≈ 71.2 µM) | 0.05 µg/mL (≈ 0.142 µM) | 1.56 µg/mL (≈ 4.44 µM) | 0.05 µg/mL (≈ 0.142 µM) | 0.78 µg/mL (≈ 2.22 µM) | 0.2 µg/mL (≈ 0.569 µM) | 0.78 µg/mL (≈ 2.22 µM) | 0.2 µg/mL (≈ 0.569 µM) | 6.25 µg/mL (≈ 17.8 µM) | 0.78 µg/mL (≈ 2.22 µM) | 0.1 µg/mL (≈ 0.285 µM) | 0.1 µg/mL (≈ 0.285 µM) | 0.39 µg/mL (≈ 1.11 µM) | 6.25 µg/mL (≈ 17.8 µM) | 1.56 µg/mL (≈ 4.44 µM) | 3.13 µg/mL (≈ 8.91 µM) | 0.2 µg/mL (≈ 0.569 µM) | MIC [7, 16]: 0.05 µg/mL (≈ 0.142 µM); MIC (P. aeruginosa IFO 12689): 1.56 µg/mL (≈ 4.44 µM); MIC [10]: 1.56 µg/mL (≈ 4.44 µM); MIC [11]: 3.13 µg/mL (≈ 8.91 µM); MIC [12]: 0.05 µg/mL (≈ 0.142 µM); MIC (F. necrophorum S-45): 3.13 µg/mL (≈ 8.91 µM); MIC (B. distasonis 8503): 3.13 µg/mL (≈ 8.91 µM); MIC [13]: 3.13 µg/mL (≈ 8.91 µM); MIC [14, 16]: 0.05 µg/mL (≈ 0.142 µM); MIC (P. aeruginosa IID 1210): 6.25 µg/mL (≈ 17.8 µM); MIC (B. vulgatus KYA 29327): 3.13 µg/mL (≈ 8.91 µM); MIC [15]: 1.56 µg/mL (≈ 4.44 µM)
C[C@@H]1CN(c2c(F)cc3c(=O)c(C(=O)O)cn(C4CC4)c3c2F)C[C@H]1N (relative stereo) [Example 18, 7-(trans-3-Amino-4-methyl-1-pyrrolidinyl)-1-cyclopropyl-6,8-difluoro-1,4-dihydro-4-oxo-3-quinolinecarboxylic acid] | 0.05 µg/mL (≈ 0.138 µM) | 0.1 µg/mL (≈ 0.275 µM) | 0.025 µg/mL (≈ 0.0688 µM) | 1.56 µg/mL (≈ 4.29 µM) | 0.05 µg/mL (≈ 0.138 µM) | 0.05 µg/mL (≈ 0.138 µM) | 0.0063 µg/mL (≈ 0.0173 µM) | 0.05 µg/mL (≈ 0.138 µM) | 0.05 µg/mL (≈ 0.138 µM) | 0.1 µg/mL (≈ 0.275 µM) | 0.05 µg/mL (≈ 0.138 µM) | 1.56 µg/mL (≈ 4.29 µM) | 0.1 µg/mL (≈ 0.275 µM) | 0.025 µg/mL (≈ 0.0688 µM) | 0.05 µg/mL (≈ 0.138 µM) | 0.1 µg/mL (≈ 0.275 µM) | 0.78 µg/mL (≈ 2.15 µM) | 0.2 µg/mL (≈ 0.55 µM) | 0.39 µg/mL (≈ 1.07 µM) | 0.2 µg/mL (≈ 0.55 µM) | MIC [7]: 0.0125 µg/mL (≈ 0.0344 µM); MIC (P. aeruginosa IFO 12689): 0.39 µg/mL (≈ 1.07 µM); MIC [10]: 0.1 µg/mL (≈ 0.275 µM); MIC [11]: 0.2 µg/mL (≈ 0.55 µM); MIC [12]: 0.025 µg/mL (≈ 0.0688 µM); MIC (F. necrophorum S-45): 0.2 µg/mL (≈ 0.55 µM); MIC (B. distasonis 8503): 0.39 µg/mL (≈ 1.07 µM); MIC [13]: 0.2 µg/mL (≈ 0.55 µM); MIC [14]: 0.0125 µg/mL (≈ 0.0344 µM); MIC (P. aeruginosa IID 1210): 0.78 µg/mL (≈ 2.15 µM); MIC (B. vulgatus KYA 29327): 0.39 µg/mL (≈ 1.07 µM); MIC [15]: 0.2 µg/mL (≈ 0.55 µM)
C[C@H]1CN(c2cc3c(cc2F)c(=O)c(C(=O)O)cn3C2CC2)C[C@H]1N (relative stereo) [Example 33, 7-(cis-3-Amino-4-methyl-1-pyrrolidinyl)-1-cyclopropyl-6-fluoro-1,4-dihydro-4-oxo-3-quinolinecarboxylic acid] | 0.05 µg/mL (≈ 0.145 µM) | 0.78 µg/mL (≈ 2.26 µM) | 0.05 µg/mL (≈ 0.145 µM) | 12.5 µg/mL (≈ 36.2 µM) | 0.05 µg/mL (≈ 0.145 µM) | 0.39 µg/mL (≈ 1.13 µM) | 0.05 µg/mL (≈ 0.145 µM) | 0.39 µg/mL (≈ 1.13 µM) | 0.05 µg/mL (≈ 0.145 µM) | 0.39 µg/mL (≈ 1.13 µM) | 0.1 µg/mL (≈ 0.29 µM) | 12.5 µg/mL (≈ 36.2 µM) | 0.39 µg/mL (≈ 1.13 µM) | 0.05 µg/mL (≈ 0.145 µM) | 0.05 µg/mL (≈ 0.145 µM) | 0.2 µg/mL (≈ 0.579 µM) | 6.25 µg/mL (≈ 18.1 µM) | 1.56 µg/mL (≈ 4.52 µM) | 6.25 µg/mL (≈ 18.1 µM) | 0.1 µg/mL (≈ 0.29 µM) | MIC [7, 16]: 0.05 µg/mL (≈ 0.145 µM); MIC (P. aeruginosa IFO 12689): 0.39 µg/mL (≈ 1.13 µM); MIC [10]: 0.78 µg/mL (≈ 2.26 µM); MIC [11]: 1.56 µg/mL (≈ 4.52 µM); MIC [12]: 0.05 µg/mL (≈ 0.145 µM); MIC (F. necrophorum S-45): 1.56 µg/mL (≈ 4.52 µM); MIC (B. distasonis 8503): 6.25 µg/mL (≈ 18.1 µM); MIC [13]: 1.56 µg/mL (≈ 4.52 µM); MIC [14, 16]: 0.05 µg/mL (≈ 0.145 µM); MIC (P. aeruginosa IID 1210): 1.56 µg/mL (≈ 4.52 µM); MIC (B. vulgatus KYA 29327): 6.25 µg/mL (≈ 18.1 µM); MIC [15]: 1.56 µg/mL (≈ 4.52 µM)
